Laboratory results as given in publication PMC5920042, “KH176 Safeguards Mitochondrial Diseased Cells from Redox Stress-Induced Cell Death by Interacting with the Thioredoxin System/Peroxiredoxin Enzyme Machinery” (Scientific Reports, 2018).
Read-outs that look alike come from different tables or passages of the source.

What was measured:
[1] = biological target: T1, human Prdx2 (Homo sapiens, UniProt P32119); assay: Surface Plasmon Resonance binding; details: immobilized Prdx2, SPR, 0.31-5.0 µM
T1 construct: purchased Novus Biological NBC1-25855
T1 sequence (P32119 1-198): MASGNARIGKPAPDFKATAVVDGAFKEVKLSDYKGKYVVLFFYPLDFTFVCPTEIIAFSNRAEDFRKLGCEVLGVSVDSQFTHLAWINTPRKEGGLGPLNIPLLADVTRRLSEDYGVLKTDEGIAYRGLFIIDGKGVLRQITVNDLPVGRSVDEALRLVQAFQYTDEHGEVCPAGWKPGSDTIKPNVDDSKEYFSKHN
Method: Prior to protein immobilization all proteins were dialyzed against HBS-E (10 mM Hepes, 150 mM NaCl, 3 mM EDTA) buffer that was previously filtered through a 0.45 µM membrane using dialyze slide according to the manufacturer instruction. Human recombinant proteins peroxiredoxin 2 (Novus Biological NBC1-25855) and CCDC101 (Abcam Ab124547) were immobilized on CM5 (carboxymethylated dextran covalently attached to a gold surface) using the amine coupling method according to manufacturer’s recommendation (Biacore, GE Healthcare). Briefly the CM5 surface was activated with the mixture of EDC/NHS. Recombinant proteins at dilution 1 µg/ml in a corresponding buffer i.e. Peroxiredoxin 2 and CCDC101 in sodium acetate buffer 100 mM (pH 4.9). The control channel was activated with EDC/NHS. All channels were thereafter saturated with 0.1 M ethanolamine solution. KH176 andKH176m were solubilized in HBSS at stock solution 1 mM. They were thereafter further diluted in HBSS to final concentrations 0.31e-6M, 0.62e-6M, 1.25e-6M, 2.5e-6M and 5.0e-6M and injected over the flow cells at a flow rate equal to […] for 2 min, followed by a dissociation phase of 4 min. The sensor chip surface was regenerated with 1 mM HCl. The specific binding profiles were obtained after subtracting the response signal from the control empty channel and from blank-buffer injection. The specific binding was calculated using Biaeval 3 software (Biacore, GE Healthcare) with the postulate of 1:1 ligand/analyte interaction. Based on the Chi^2 value in regard to the Rmax (less than 10%) and the difference interval ±2.5 RU theoretic fitting compared to experimental results, best fitting algorithm between Langmuir or drifting base line was applied.

[2] = test system: P4 cell line; assay: GSH measurements (GSH-Glo) under BSO; type: cell-based, human; details: increasing BSO 24 h, 3 µM compound
Method: Cells were seeded at a density of 4 × 10^3 cells/well into 96-wells white plates (#655098, Greiner Bio-one). After 24 h the cells were treated with semi-logarithmic dilutions of BSO up to a concentration of 100 µM alone or in co-incubation with a fixed amount of the test compound. 24 h after the treatment, GSH levels were measured with the GSH-Glo™ Glutathione Assay (# V6911, Promega) according to the manufacturer instructions. Luminescence was measured on a scanning microplate reader (BMG FLUOstar Omega).

[3] = test system: primary human skin fibroblasts; assay: Mitochondrial superoxide detection by mitoSOX oxidation; type: cell-based; details: 30 min preincubation, no external stimulus
Method: The cells were seeded at a density of 3 × 10^3 cells/well into 96-wells black plates. After 24 h, the cells were incubated with different amounts of KH176(m) in M199 without phenol red. This medium was used in all subsequent washes and incubations. After 30 min. incubation the cells were washed and subsequently incubated 1 µM mitoSOX (#M36008, ThermoFisher). […] After 10 min incubation the cells were washed twice and incubated for 30 min. to allow the accumulation of oxidized mitoSOX in the mitochondria. […] Wells with cells but without mitoSOX were used for background correction. Experiments were performed at least three times with 3 wells per experiment.

[4] = 28-day repeat oral dose toxicity study, toxicokinetics; type: in vivo, Sprague Dawley rats; details: Sprague Dawley, rat, plasma, po; for AUC(0-t): read-out: AUC0–24 h; for Cmax: read-out: Cmax
Method: Pharmacokinetics and toxicokinetics measurements were performed by the commercial Contract Research Organizations Sai Life Sciences and WuXi AppTec, respectively, according to their standard protocols and in accordance with relevant guidelines and regulations. C57 BL/6 mice, Sprague Dawley rats, and Beagle dogs were studied.

[5] = test system: P4 cell line; assay: Redox Stress Survival assay (BSO-induced cell death, Calcein AM viability); type: cell-based, human; details: for EC50: 24 h, P4 cells, 200 µM BSO
Method: Cells were seeded at a density of 4 × 10^3 cells/well into 96-wells black plates and incubated for 24 h. To induce redox stress, semi-logarithmic dilutions of buthionine sulphoximine (BSO, #B2515, Sigma Aldrich) up to 100 µM were added to the cells in culture medium and incubated for 24 h. Cell viability was assessed by quantification of cellular conversion of Calcein AM into fluorescent Calcein. Briefly, after having discarded the BSO containing medium, cells were washed once with M199 without phenol red and loaded with 2 µM Calcein AM (#65-0853-39, Affimetrix eBioscience) in M199 without phenol red for 25 min. At the end of the incubation period, the excess of the dye was washed with M199 without phenol red and Calcein fluorescence was measured with a scanning microplate reader (BMG FLUOstar Omega; Ex. 480 nm, Em. 520 nm). For compound screening and target identification measurements cells were treated with 200 µM BSO alone or in co-incubation with semi-logarithmic dilutions of the test compound. Additionally, where indicated, increasing doses of Auranofin (AFN, #BML-EI206-0100, Enzo) or Aurothioglucose (ATG, #A0606, Sigma Aldrich) were co-incubated with BSO and the test compound. In all cases, cell viability was assessed 24 h after the treatment.

[6] = female, 25 mg/kg, KH176 25 mg/kg/dose BID oral, F, Day 1, plasma
[7] = female, 25 mg/kg, KH176 25 mg/kg/dose BID oral, F, Day 28, plasma
[8] = female, 75 mg/kg, KH176 75 mg/kg/dose BID oral, F, Day 1, plasma
[9] = female, 75 mg/kg, KH176 75 mg/kg/dose BID oral, F, Day 28, plasma
[10] = female, 250 mg/kg, KH176 250 mg/kg/dose BID oral, F, Day 1, plasma
[11] = female, 250 mg/kg, KH176 250 mg/kg/dose BID oral, F, Day 28, plasma
[12] = male, 25 mg/kg, KH176 25 mg/kg/dose BID oral, M, Day 1, plasma
[13] = male, 25 mg/kg, KH176 25 mg/kg/dose BID oral, M, Day 28, plasma
[14] = male, 75 mg/kg, KH176 75 mg/kg/dose BID oral, M, Day 1, plasma
[15] = male, 75 mg/kg, KH176 75 mg/kg/dose BID oral, M, Day 28, plasma
[16] = male, 250 mg/kg, KH176 250 mg/kg/dose BID oral, M, Day 1, plasma
[17] = male, 250 mg/kg, KH176 250 mg/kg/dose BID oral, M, Day 28, plasma

- Binding to Prdx2 [1]: not
Structure (SMILES): Cc1c(C)c2c(c(C)c1O)CC[C@@](C)(C(=O)N[C@@H]1CCCNC1)O2.Cl [KH176, (S)-6-hydroxy-2,5,7,8-tetramethyl-N-((R)-piperidin-3-yl)chroman-2-carboxamide hydrochloride]
- GSH level under BSO [2]: remained unaffected
- Potency on mitochondrial superoxide levels (mitoSOX) [3]: much less potent
- half-life [4, 6]: 2.6 h
- AUC(0-t) [4, 6]: 12500 ng·h/mL
- Cmax [4, 6]: 1360 ng/mL
- half-life [4, 7]: 3.2 h
- AUC(0-t) [4, 7]: 19000 ng·h/mL
- Cmax [4, 7]: 2270 ng/mL
- half-life [4, 8]: 8.4 h
- AUC(0-t) [4, 8]: 42400 ng·h/mL
- Cmax [4, 8]: 3050 ng/mL
- half-life [4, 9]: 6 h
- AUC(0-t) [4, 9]: 76900 ng·h/mL
- Cmax [4, 9]: 5340 ng/mL
- AUC(0-t) [4, 10]: 104000 ng·h/mL
- Cmax [4, 10]: 6970 ng/mL
- AUC(0-t) [4, 11]: 243000 ng·h/mL
- Cmax [4, 11]: 13300 ng/mL
- half-life [4, 12]: 2.4 h
- AUC(0-t) [4, 12]: 10500 ng·h/mL
- Cmax [4, 12]: 979 ng/mL
- half-life [4, 13]: 5.6 h
- AUC(0-t) [4, 13]: 15600 ng·h/mL
- Cmax [4, 13]: 1600 ng/mL
- half-life [4, 14]: 4.5 h
- AUC(0-t) [4, 14]: 33100 ng·h/mL
- Cmax [4, 14]: 2860 ng/mL
- AUC(0-t) [4, 15]: 46200 ng·h/mL
- Cmax [4, 15]: 4210 ng/mL
- AUC(0-t) [4, 16]: 94000 ng·h/mL
- Cmax [4, 16]: 5890 ng/mL
- half-life [4, 17]: 8.3 h
- AUC(0-t) [4, 17]: 157000 ng·h/mL
- Cmax [4, 17]: 11200 ng/mL
- EC50 ([5]; Homo sapiens): 269 nM
- EC50 [5]: 270 nM
- Viability of patient cells under BSO ([5]; increasing BSO 24 h, 3 µM compound): fully protected
